Reference: patent publication US20140357726A1, “USE OF PEGYLATED ALCOHOLS FOR THE TREATMENT OF ACTINIC KERATOSIS” (MERZ PHARMA GmbH & CO. KGaA, priority 2011, published 2014)

Test system: NHEK-cells
Test: Resazurin viability assay on primary normal human epidermal keratinocytes (cytolytic potential)
Format: cell-based
Conditions: metabolic activity as read-out (Resazurin-assay); eight concentrations up to 1 mM
Protocol: By using primary, normal human epidermal keratinocytes (NHEK, FIG. 1) the cytolytic potential of the drug compound was investigated.
The viability of the cells was monitored by their metabolic activity using the Resazurin-assay. Eight different concentrations (up to 1 mM) of polidocanol were investigated. Viability of the cells was plotted against the different concentration of test compound.
From the resulting sigmoid-curve the IC50 value for the cytolytic effect was determined and given in the respective figure. FIG. 1 depicts the relative viability of NHEK-cells vs. the concentration of test-compound using metabolic activity as read-out.

Polidocanol
relative viability of NHEK-cells vs. the concentration of test-compound: clear negative-impact
